Data taken from patent publication US20240252488A1 (KOREA RESEARCH INSTITUTE OF CHEMICAL TECHNOLOGY, priority 2020, published 2024).
pKd: −log10 of the molar value.

Experiments:
MLKL [1] = target: T1, MLKL (Homo sapiens, UniProt Q8NB16); assay: Measurement of binding affinity with MLKL receptor (competitive binding assay, Kd); set-up: made in house; host or cells: HEK 293 cell line (T7 phage in E. coli BL21-derived host is also described)
T1 sequence (Q8NB16 1-471): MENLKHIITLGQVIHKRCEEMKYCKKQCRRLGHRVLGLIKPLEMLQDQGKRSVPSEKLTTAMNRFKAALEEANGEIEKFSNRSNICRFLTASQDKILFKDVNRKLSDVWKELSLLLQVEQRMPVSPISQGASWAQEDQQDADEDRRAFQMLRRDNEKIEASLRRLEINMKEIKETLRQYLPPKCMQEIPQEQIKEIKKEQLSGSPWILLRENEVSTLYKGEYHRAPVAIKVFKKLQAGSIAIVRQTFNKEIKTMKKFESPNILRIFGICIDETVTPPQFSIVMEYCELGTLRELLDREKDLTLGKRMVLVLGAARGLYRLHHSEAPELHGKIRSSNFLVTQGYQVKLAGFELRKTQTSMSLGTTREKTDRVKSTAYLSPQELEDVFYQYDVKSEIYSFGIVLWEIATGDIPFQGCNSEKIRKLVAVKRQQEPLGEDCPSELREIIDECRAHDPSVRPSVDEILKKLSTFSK
Summary of the method: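 HEK 293-expressed, DNA-tagged MLKL; ligand beads blocked with biotin and SeaBlock/1% BSA/0.05% Tween 20/1 mM DTT buffer. Cpd from 111× DMSO stock, 0.9% DMSO final. Eluted kinase by qPCR → Kd.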

MLKL [2] = target: T1, MLKL; assay: MLKL degradation assay in HepG2 cell line (western blot); assay type: cell-based; set-up: endogenous in cells; host or cells: HepG2 or HaCaT; settings: cell line not given; for Degradation assay (Degradation %) 1 μM: compound 1 μM; for Degradation assay (Degradation %) 10 μM: compound 10 μM
Summary of the method: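 HepG2 cells were exposed to compound at a final 1 or 10 μM for 20-24 hours at 37 °C, 5% CO2. RIPA lysates were normalized by BCA assay, 10-15 μg protein resolved by SDS-PAGE, and MLKL levels detected by western blot with chemiluminescence.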

FADD−/− Jurkat cells = assay: Necroptosis inhibition assay, TNF-α-induced necroptosis (CellTiter-Glo 2.0); assay type: cell-based, human; settings: TNF-α 15 ng/mL; for Necroptosis inhibition assay (Rescue %) 1 μM: compound 1 μM; for Necroptosis inhibition assay (Rescue %) 10 μM: compound 10 μM
Summary of the method: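 Cells at 5.0×10^5 cells/mL were pretreated with compound (final 0.1, 1 and 10 μM) for 30 minutes at room temperature, then given TNF-α at 15 ng/mL final. After 20 to 24 hours at 37° C, 5% CO2, viability was read as ATP luminescence to calculate cytotoxicity and necroptosis inhibition rate.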

Row | Compound | pKd (MLKL [1]) | Degradation assay (Degradation %) 1 μM (MLKL [2]) | Degradation assay (Degradation %) 10 μM (MLKL [2]) | Necroptosis inhibition assay (Rescue %) 1 μM (FADD−/− Jurkat cells; FADD−/− Jurkat cells) | Necroptosis inhibition assay (Rescue %) 10 μM (FADD−/− Jurkat cells; FADD−/− Jurkat cells) | Necroptosis inhibition assay (Rescue %) 1 μM (FADD−/− Jurkat cells) | Necroptosis inhibition assay (Rescue %) 10 μM (FADD−/− Jurkat cells)
1 | Nc1ncc(-c2cnn(C3CCN(CCC4CCN(C(=O)c5cccc(C(=O)NC6CCC(=O)NC6=O)c5)CC4)CC3)c2)nc1C(=O)O[C@@H](C(=O)Nc1ccc(F)cc1)c1ccccc1 (stereo partly drawn) [TDH-543, (R)-2-((4-fluorophenyl)amino)-2-oxo-1-phenylethyl 3-amino-6-(1-(1-(2-(1-(3-((2,6-dioxopiperidin-3-yl)carbamoyl)benzoyl)piperidin-4-yl)ethyl)piperidin-4-yl)-1H-pyrazol-4-yl)pyrazine-2-carboxylate] | 9.64 | 76.24% | 80.46% | 37.86% | 26.19% |  | 
2 | COc1ccc(C(=O)N2CCC(C(=O)N3CCC(CCN4CCC(n5cc(-c6cnc(N)c(C(=O)O[C@@H](C(=O)Nc7ccc(F)cc7)c7ccccc7)n6)cn5)CC4)CC3)CC2)cc1N1CCC(=O)NC1=O [TDH-517, (R)-2-((4-fluorophenyl)amino)-2-oxo-1-phenylethyl 3-amino-6-(1-(1-(2-(1-(1-(3-(2,4-dioxotetrahydropyrimidin-1(2H)-yl)-4-methoxybenzoyl)piperidine-4-carbonyl)piperidin-4-yl)ethyl)piperidin-4-yl)-1H-pyrazol-4-yl)pyrazine-2-carboxylate] | 9.21 | 93.97% | 86.64% | 58.11% | 10.78% |  | 
3 | Nc1ncc(-c2cnn(C3CCN(CCOCCOCCOCCNC(=O)C4CCN(c5cccc6c5C(=O)N(C5CCC(=O)NC5=O)C6=O)CC4)CC3)c2)nc1C(=O)O[C@@H](C(=O)Nc1ccc(F)cc1)c1ccccc1 (stereo partly drawn) [TDH-139, (R)-2-((4-fluorophenyl)amino)-2-oxo-1-phenylethyl 3-amino-6-(1-(1-(1-(1-(2-(2,6-dioxopiperidin-3-yl)-1,3-dioxoisoindolin-4-yl)piperidin-4-yl)-1-oxo-5,8,11-trioxa-2-azatridecan-13-yl)piperidin-4-yl)-1H-pyrazol-4-yl)pyrazine-2-carboxylate] | 8.31 |  | 78.56% |  |  | 18.11% | 61.89%
4 | Nc1ncc(-c2cnn(C3CCN(CCOC4CCN(C(=O)c5ccc6c(N7CCC(=O)NC7=O)coc6c5)CC4)CC3)c2)nc1C(=O)O[C@@H](C(=O)Nc1ccc(F)cc1)c1ccccc1 [TDH-554, (R)-2-((4-fluorophenyl)amino)-2-oxo-1-phenylethyl 3-amino-6-(1-(1-(2-((1-(3-(2,4-dioxotetrahydropyrimidin-1(2H)-yl)benzofuran-6-carbonyl)piperidin-4-yl)oxy)ethyl)piperidin-4-yl)-1H-pyrazol-4-yl)pyrazine-2-carboxylate] | 9.37 | 83.95% | 70.50% | 39.53% | 14.16% |  | 
5 | Nc1ncc(-c2cnn(C3CCN(CCCCCCCCCCNC(=O)C4CCN(c5ccc6nnn(C7CCC(=O)NC7=O)c(=O)c6c5)CC4)CC3)c2)nc1C(=O)O[C@@H](C(=O)Nc1ccc(F)cc1)c1ccccc1 (stereo partly drawn) [TDH-177, (R)-2-((4-fluorophenyl)amino)-2-oxo-1-phenylethyl 3-amino-6-(1-(1-(10-(1-(3-(2,6-dioxopiperidin-3-yl)-4-oxo-3,4-dihydrobenzo[d][1,2,3]triazin-6-yl)piperidine-4-carboxamido)decyl)piperidin-4-yl)-1H-pyrazol-4-yl)pyrazine-2-carboxylate] | 7.08 | 36.03% | 75.8% |  |  | 41.3% | 48.7%
6 | Nc1ncc(-c2cnn(C3CCN(CC4CCN(C(=O)CNc5cccc6c5C(=O)N(C5CCC(=O)NC5=O)C6=O)CC4)CC3)c2)nc1C(=O)O[C@@H](C(=O)Nc1ccc(F)cc1)c1ccccc1 (stereo partly drawn) [TDH-136, (R)-2-((4-fluorophenyl)amino)-2-oxo-1-phenylethyl 3-amino-6-(1-(1-((1-((2-(2,6-dioxopiperidin-3-yl)-1,3-dioxoisoindolin-4-yl)glycyl)piperidin-4-yl)methyl)piperidin-4-yl)-1H-pyrazol-4-yl)pyrazine-2-carboxylate] | 8.34 | 50.37% | 48.83% |  |  | 48.59% | 40.66%
7 | Nc1ncc(-c2cnn(C3CCN(CCCCCCNC(=O)C4CCN(c5cccc6c5C(=O)N(C5CCC(=O)NC5=O)C6=O)CC4)CC3)c2)nc1C(=O)O[C@@H](C(=O)Nc1ccc(F)cc1)c1ccccc1 (stereo partly drawn) [TDH-108, (R)-2-((4-fluorophenyl)amino)-2-oxo-1-phenylethyl 3-amino-6-(1-(1-(6-(1-(2-(2,6-dioxopiperidin-3-yl)-1,3-dioxoisoindolin-4-yl)piperidine-4-carboxamido)hexyl)piperidin-4-yl)-1H-pyrazol-4-yl)pyrazine-2-carboxylate] | 8.36 | 48.06% | 43.66% |  |  | 75.49% | 43.94%
8 | Nc1ncc(-c2cnn(C3CCN(CC4CCN(C(=O)CCc5cccc6c5CN(C5CCC(=O)NC5=O)C6=O)CC4)CC3)c2)nc1C(=O)O[C@@H](C(=O)Nc1ccc(F)cc1)c1ccccc1 (stereo partly drawn) [TDH-384, (R)-2-((4-fluorophenyl)amino)-2-oxo-1-phenylethyl 3-amino-6-(1-(1-((1-(3-(2-(2,6-dioxopiperidin-3-yl)-1-oxoisoindolin-4-yl)propanoyl)piperidin-4-yl)methyl)piperidin-4-yl)-1H-pyrazol-4-yl)pyrazine-2-carboxylate] | 8.72 | 81.59% | 58.63% |  |  | 39.08% | 9.67%
9 | Nc1ncc(-c2cnn(C3CCN(CCC4CCN(C(=O)CCc5ccc6c(c5)CN(C5CCC(=O)NC5=O)C6=O)CC4)CC3)c2)nc1C(=O)O[C@@H](C(=O)Nc1ccc(F)cc1)c1ccccc1 (stereo partly drawn) [TDH-475, (R)-2-((4-fluorophenyl)amino)-2-oxo-1-phenylethyl 3-amino-6-(1-(1-(2-(1-(3-(2-(2,6-dioxopiperidin-3-yl)-1-oxoisoindolin-5-yl)propanoyl)piperidin-4-yl)ethyl)piperidin-4-yl)-1H-pyrazol-4-yl)pyrazine-2-carboxylate] | 9.47 | 81.77% | 60.49% | 31.75% | 7.21% |  | 
10 | Nc1ncc(-c2cnn(C3CCN(CC4CCN(C(=O)C5CCN(c6cccc7c6C(=O)N(C6CCC(=O)NC6=O)C7=O)CC5)CC4)CC3)c2)nc1C(=O)O[C@@H](C(=O)Nc1ccc(F)cc1)c1ccccc1 (stereo partly drawn) [TDH-146, (R)-2-((4-fluorophenyl)amino)-2-oxo-1-phenylethyl 3-amino-6-(1-(1-((1-(1-(2-(2,6-dioxopiperidin-3-yl)-1,3-dioxoisoindolin-4-yl)piperidine-4-carbonyl)piperidin-4-yl)methyl)piperidin-4-yl)-1H-pyrazol-4-yl)pyrazine-2-carboxylate] | 8.27 | 65.04% | 60.65% |  |  | 42.2% | 9.61%
